Molecular target: Tyrosine-protein kinase BTK (Homo sapiens, UniProt Q06187)
Test: Inhibition of human BTK-A using phosphorylated substrate in presence of ATP by microplate reader assay

Chain of Tyrosine-protein kinase BTK (Q06187 whole entry): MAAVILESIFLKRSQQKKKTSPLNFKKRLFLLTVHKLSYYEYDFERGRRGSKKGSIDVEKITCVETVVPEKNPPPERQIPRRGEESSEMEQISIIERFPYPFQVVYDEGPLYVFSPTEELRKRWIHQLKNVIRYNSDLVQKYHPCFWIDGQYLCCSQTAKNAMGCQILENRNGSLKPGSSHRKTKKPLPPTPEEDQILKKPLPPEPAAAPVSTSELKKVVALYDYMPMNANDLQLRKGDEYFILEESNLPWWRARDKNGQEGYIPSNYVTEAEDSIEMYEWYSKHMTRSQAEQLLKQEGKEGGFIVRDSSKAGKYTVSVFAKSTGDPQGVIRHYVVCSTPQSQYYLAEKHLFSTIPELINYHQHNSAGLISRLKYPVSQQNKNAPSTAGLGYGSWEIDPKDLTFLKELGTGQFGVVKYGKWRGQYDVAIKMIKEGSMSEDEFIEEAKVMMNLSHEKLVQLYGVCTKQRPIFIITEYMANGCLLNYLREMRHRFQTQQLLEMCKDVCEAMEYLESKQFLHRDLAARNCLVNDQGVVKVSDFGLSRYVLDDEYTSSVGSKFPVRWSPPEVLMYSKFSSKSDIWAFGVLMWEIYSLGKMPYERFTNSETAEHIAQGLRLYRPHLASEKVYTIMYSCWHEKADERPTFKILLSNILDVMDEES

| IC50 | Compound |
| --- | --- |
| 2.1 nM | Nc1nc(-c2cccc(-n3ccc4cc(C5CC5)cc(F)c4c3=O)c2CO)c2cc(-c3cccnc3)[nH]c2n1 |
| 0.65 nM | Nc1nc(-c2cccc(-n3ccc4cc(C5CC5)cc(F)c4c3=O)c2CO)c2cc(C3=CCNCC3)[nH]c2n1 |
| 2.6 nM | Nc1nc(-c2cccc(-n3ccc4cc(C5CC5)cc(F)c4c3=O)c2CO)c2cc(C3=CCCCC3)[nH]c2n1 |
| 49 nM | Cc1cc2c(-c3cccc(-n4ccc5cc(C6CC6)cc(F)c5c4=O)c3CO)nc(N)nc2[nH]1 |

— ChEMBL document CHEMBL5053510, “Discovery of AS-1763: A Potent, Selective, Noncovalent, and Orally Available Inhibitor of Bruton's Tyrosine Kinase” (J Med Chem, 2021)
